Where two headings read alike, the source gives them in different places.

Here are results for 31 compounds from patent publication US20200109126A1 (priority 2017, published 2020).

The target of assay [1] is T1, μOR (Homo sapiens, UniProt P35372). The assay is described as follows: cell-based. The class given is cell-based. As to conditions: for EC50: Gi/o EC50 nM.
Assay [2] deals with T1, μOR. The assay is described as follows: β-arrestin recruitment at μOR with GRK2 co-expression. In kind it is cell-based.
The next assay concerns the target hKOR (Homo sapiens, UniProt P41145). Briefly: Receptor binding with [3H]diprenorphine at hKOR.
For another assay, the target named is humanDOR (Homo sapiens, UniProt P41143). The assay is described as follows: Receptor binding with [3H]diprenorphine at human DOR.
Chain of humanDOR (P41143 whole entry): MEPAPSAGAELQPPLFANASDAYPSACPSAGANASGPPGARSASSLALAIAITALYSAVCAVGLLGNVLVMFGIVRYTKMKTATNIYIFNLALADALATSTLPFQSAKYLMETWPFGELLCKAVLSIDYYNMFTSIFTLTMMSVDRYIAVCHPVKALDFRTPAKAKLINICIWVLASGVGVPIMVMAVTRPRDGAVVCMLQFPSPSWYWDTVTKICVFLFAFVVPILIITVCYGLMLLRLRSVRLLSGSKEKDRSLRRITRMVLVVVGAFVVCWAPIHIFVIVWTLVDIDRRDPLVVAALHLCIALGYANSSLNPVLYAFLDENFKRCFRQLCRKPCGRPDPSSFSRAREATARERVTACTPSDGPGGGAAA
The next assay deals with hMOR (Homo sapiens, UniProt P35372). The assay is described as follows: Receptor binding with [3H]diprenorphine at hMOR.
Chain of hMOR (P35372 whole entry): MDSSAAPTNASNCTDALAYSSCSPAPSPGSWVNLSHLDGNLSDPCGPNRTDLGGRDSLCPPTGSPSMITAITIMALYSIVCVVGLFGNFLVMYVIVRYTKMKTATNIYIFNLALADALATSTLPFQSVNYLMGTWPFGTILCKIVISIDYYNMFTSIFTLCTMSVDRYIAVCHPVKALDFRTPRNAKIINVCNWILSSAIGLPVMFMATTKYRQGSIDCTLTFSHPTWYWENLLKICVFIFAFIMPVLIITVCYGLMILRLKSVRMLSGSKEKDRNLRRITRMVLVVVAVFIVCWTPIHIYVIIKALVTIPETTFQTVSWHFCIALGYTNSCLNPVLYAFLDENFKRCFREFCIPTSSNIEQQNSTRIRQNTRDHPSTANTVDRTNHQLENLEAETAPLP
Assay [3] concerns the target T1, μOR. Briefly: β-arrestin recruitment at μOR without GRK2. In kind it is cell-based.
Where [4] appears, read: ± SD (two experiments) or SEM, (n) experiments, read-out: hKOR [3H]dyprenorphine Ki.
The mark [5] stands for this setting: ± SD (two experiments) or SEM, (n) experiments, read-out: humanDOR [3H]dyprenorphine Ki.
The mark [6] stands for this setting: ± SD (two experiments) or SEM, (n) experiments, read-out: hMOR [3H]dyprenorphine Ki.
Setting [7] is: PZM analogs, (n) = number of independent experiments, read-out: binding affinity Ki hKOR.
Where [8] appears, read: PZM analogs, (n) = number of independent experiments, read-out: binding affinity Ki hDOR.
The mark [9] stands for this setting: PZM analogs, (n) = number of independent experiments, read-out: binding affinity Ki hMOR.

T1 sequence (P35372 whole entry): as above
Chain of hKOR (P41145 whole entry): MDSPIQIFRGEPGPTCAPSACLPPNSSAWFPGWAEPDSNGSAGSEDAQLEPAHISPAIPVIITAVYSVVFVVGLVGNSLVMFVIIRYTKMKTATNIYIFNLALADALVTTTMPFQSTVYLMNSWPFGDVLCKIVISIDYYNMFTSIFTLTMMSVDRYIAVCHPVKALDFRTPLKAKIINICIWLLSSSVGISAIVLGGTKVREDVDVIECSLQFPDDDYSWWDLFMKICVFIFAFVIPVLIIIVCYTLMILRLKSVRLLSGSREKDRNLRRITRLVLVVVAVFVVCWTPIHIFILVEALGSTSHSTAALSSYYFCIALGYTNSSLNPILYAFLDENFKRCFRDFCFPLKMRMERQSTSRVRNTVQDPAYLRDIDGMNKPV

Turning to `C[C@@H](Cc1ccsc1)NC(=O)NC[C@H](Cc1ccccc1)N(C)C` [(S,S)-12, 1-[(S)-2-(Dimethylamino)-3-phenylpropyl]-3-[(S)-1-(thiophen-3-yl)propan-2-yl]urea], the “Gi/o activation, μOR agonist activity (in words)” value at μOR [1] was “most potent and efficacious Gi/o signaling agonist among the four isomers”.
Regarding `C[C@@H](Cc1ccsc1)NC(=O)NC[C@H](Cc1cccc(O)c1)N(C)C` [DD 47LS, 1-((S)-2-(dimethylamino)-3-(3-hydroxyphenyl)propyl)-3-((S)-1-(thiophen-3-yl)propan-2-yl)urea], the “Arrestin + GRK2 Emax % DAMGO” value at μOR [2] is listed as 70 % DAMGO. Besides, the EC50 at μOR [2] (read-out: Arrestin + GRK2 EC50) stood at 211 nM; on μOR [1] it was 17 nM; on μOR [3] (read-out: Arrestin EC50), 357 nM. The values for the Ki at hKOR (setting [4]), on humanDOR (setting [5]) and on hMOR (setting [6]) were 46 nM, 350 nM and 34 nM, respectively. For the same compound, the “Gi/o Emax % DAMGO” value on μOR [1] was 73 % DAMGO. Further, the “Arrestin Emax % DAMGO” value at μOR [3] is given as 12 % DAMGO.
As for `CN(C[C@H](Cc1ccc(O)cc1)N(C)C)C(=O)NCCc1ccccc1` [DD108], the “Arrestin + GRK2 Emax % DAMGO” value at μOR [2] is recorded as 118 % DAMGO. Besides, the EC50 at μOR [2] (read-out: Arrestin + GRK2 EC50) is 1490 nM; on μOR [2] (read-out: Arrestin + GRK2 pEC50 (converted)), 1490 nM; on μOR [1] it was 35.1 nM; on μOR [3] (read-out: Arrestin EC50), 4710 nM. The “Gi/o Emax % DAMGO” value on μOR [1] turned out to be 86 % DAMGO. Besides, the “Arrestin Emax % DAMGO” value at μOR [3] stood at 120 % DAMGO.
Consider `CN(CCc1ccccc1)C(=O)NC[C@H](Cc1ccc(O)cc1)N(C)C` [DD102], for which the “Arrestin + GRK2 Emax % DAMGO” value at μOR [2] came out at 61 % DAMGO. Moreover, the EC50 at μOR [2] (read-out: Arrestin + GRK2 EC50) was 1500 nM; at μOR [1] it was 37.9 nM; at μOR [3] (read-out: Arrestin EC50), 1980 nM; at μOR [3] (read-out: Arrestin pEC50 (converted)) it was 1980 nM. Moreover, the “Gi/o Emax % DAMGO” value at μOR [1] is 76 % DAMGO. Also, the “Arrestin Emax % DAMGO” value on μOR [3] worked out at 30 % DAMGO.
`C[C@@H](Cc1csc2ccccc12)NC(=O)NC[C@H](Cc1ccc(O)cc1)N(C)C` [DD63L-B]: the “Arrestin + GRK2 Emax % DAMGO” value at μOR [2] worked out at 92 % DAMGO. Further, the EC50 stood at 82.1 nM on μOR [2] (read-out: Arrestin + GRK2 EC50), 5.7 nM on μOR [1] and 397 nM at μOR [3] (read-out: Arrestin EC50). In addition, at μOR [1], the “Gi/o Emax % DAMGO” value was determined as 88 % DAMGO. Besides, at μOR [3], the “Arrestin Emax % DAMGO” value was 38 % DAMGO.
Turning to `CN(CCc1ccccc1)C(=O)N(C)C[C@H](Cc1ccc(O)cc1)N(C)C` [DD109], on μOR [2], the “Arrestin + GRK2 EC50 nM” value is recorded as “No Activity” and the “Arrestin + GRK2 Emax % DAMGO” value is reported as “No Activity”. In addition, at μOR [1], the “Gi/o EC50 nM” value is recorded as “No Activity” and the “Gi/o Emax % DAMGO” value is “No Activity”. In addition, on μOR [3], the “Arrestin EC50 nM” value was “No Activity” and the “Arrestin Emax % DAMGO” value is given as “No Activity”.
As to `CC[C@@H](Cc1ccsc1)NC(=O)NC[C@H](Cc1ccc(O)cc1)N(C)C` [DD88B, 1-((S)-2-(dimethylamino)-3-(4-hydroxyphenyl)propyl)-3-((S)-1-(thiophen-3-yl)butan-2-yl)urea], the “Arrestin + GRK2 Emax % DAMGO” value on μOR [2] amounted to 45 % DAMGO. The “Arrestin Emax % DAMGO” value at μOR [3] was 5 % DAMGO.
For `C[C@H](Cc1ccsc1)NC(=O)NC[C@H](Cc1ccc(O)cc1)N(C)C` [(S,R)-21, 1-[(S)-2-(Dimethylamino)-3-(4-hydroxyphenyl)propyl]-3-((R)-1-(thiophen-3-yl)propan-2-yl)urea], the “Gi/o activation, μOR agonist activity (in words)” value at μOR [1] is given as “more potent partial agonist of the μOR as compared to (S,S)-21”.
For the compound `C[C@@H](NC(=O)[C@@H](N)Cc1ccc(O)cc1)C(=O)NCC(=O)N(C)[C@@H](Cc1ccccc1)C(=O)NCCO` [DAMGO, reference compound], the “Arrestin + GRK2 Emax % DAMGO” value on μOR [2] was found to be 100 % DAMGO. For the same compound, the “Arrestin Emax % DAMGO” value at μOR [3] turned out to be 100 % DAMGO.
Turning to `CN(C)[C@H](CNC(=O)NCCc1ccccc1)Cc1ccc(O)cc1` [DD90], at μOR [2], the “Arrestin + GRK2 Emax % DAMGO” value is given as 31 % DAMGO. Further, the EC50 at μOR [2] (read-out: Arrestin + GRK2 EC50) is 144 nM; at μOR [1], 4.25 nM; at μOR [3] (read-out: Arrestin EC50) it was 53.5 nM. In addition, the “Gi/o Emax % DAMGO” value at μOR [1] was 76 % DAMGO. Besides, at μOR [3], the “Arrestin Emax % DAMGO” value is recorded as 5 % DAMGO.
For the compound `CN(C)[C@H](CNC(=O)NC(C)(C)Cc1ccccc1)Cc1ccc(O)cc1` [drawing 530], the values for the Ki at hKOR (setting [7]), at humanDOR (setting [8]) and on hMOR (setting [9]) were 91 nM, 920 nM and 46 nM, respectively.
As to `Cc1cc(O)cc(C)c1C[C@@H](CNC(=O)N[C@H](C)Cc1ccsc1)N(C)C` [drawing 537], the Ki at hKOR (setting [7]) amounted to 12 nM; on humanDOR (setting [8]), 17 nM; at hMOR (setting [9]), 4.1 nM.
The corresponding values for `COc1cccc(CCNC(=O)NCC(Cc2ccc(O)cc2)N(C)C)c1` (centres unmarked) are 1300 nM, 220 nM and 110 nM.
As for `C[C@H](Cc1ccccc1)NC(=O)NC[C@H](Cc1ccc(O)cc1)N(C)C` [DD 61L-A, 1-((S)-2-(dimethylamino)-3-(4-hydroxyphenyl)propyl)-3-((R)-1-phenylpropan-2-yl)urea], the results for the Ki at hKOR (setting [4]), on humanDOR (setting [5]) and at hMOR (setting [6]) were 67 nM, 91 nM and 81 nM, respectively.
Turning to `CN(C)[C@H](CNC(=O)NC(C)(C)Cc1ccsc1)Cc1ccc(O)cc1` [drawing 528], the Ki on hKOR (setting [7]) was found to be 46 nM; at humanDOR (setting [8]) it was 650 nM; at hMOR (setting [9]), 38 nM.
Taken in the same sequence, the figures for `CN(C)[C@H](CNC(=O)OCCc1ccsc1)Cc1ccc(O)cc1` were 190 nM, 570 nM and 170 nM.
The corresponding values for `C[C@@H](Cc1ccsc1)NC(=O)NC[C@H](Cc1ccc(O)c(CO)c1)N(C)C` [drawing 535] are 86 nM, 1500 nM and 66 nM.
Regarding `O=C(NCCc1ccccc1)NC[C@H](Cc1ccc(O)cc1)N1CCCC1`, the Ki at hKOR (setting [7]) turned out to be 770 nM; on humanDOR (setting [8]) it was 1500 nM; at hMOR (setting [9]) it was 660 nM.
For the compound `CN(C)[C@@H](CNC(=O)NC(C)(C)Cc1ccccc1)Cc1ccccc1`, the inhibition constant Ki at hKOR (setting [7]) is 1100 nM; on humanDOR (setting [8]), 1000 nM; at hMOR (setting [9]), 640 nM.
The corresponding values for `C[C@H](NC(=O)NC[C@H](Cc1ccc(O)cc1)N(C)C)c1ccccc1` (single isomer, unassigned) are 35 nM, 590 nM and 38 nM.
In the case of `CN(C)[C@H](CNC(=O)NCCc1ccsc1)Cc1ccccc1`, the Ki worked out at 3100 nM on hKOR (setting [7]), 4500 nM on humanDOR (setting [8]) and 350 nM at hMOR (setting [9]).
Taken in the same sequence, the figures for `CN(C[C@H](Cc1ccc(O)cc1)N(C)C)C(=O)NCCc1ccccc1` [drawing 503] were 340 nM, 1700 nM and 610 nM.
Regarding `C[C@@H](Cc1ccsc1)NC(=O)NC[C@H](Cc1ccc(O)c(CO)c1)N(C)C` [DD131, 1-((S)-2-(dimethylamino)-3-(4-hydroxy-3-(hydroxymethyl)phenyl)propyl)-3-((S)-1-(thiophen-3-yl)propan-2-yl)urea], the “Arrestin + GRK2 Emax % DAMGO” value at μOR [2] was 45 % DAMGO. In addition, the EC50 on μOR [2] (read-out: Arrestin + GRK2 EC50) came to 213 nM; at μOR [1], 7.94 nM; on μOR [3] (read-out: Arrestin EC50), 230 nM. The “Gi/o Emax % DAMGO” value at μOR [1] turned out to be 57 % DAMGO. In addition, the “Arrestin Emax % DAMGO” value at μOR [3] was found to be 11 % DAMGO.
As for `C[C@H](NC(=O)NC[C@H](Cc1ccc(O)cc1)N(C)C)c1cccc2ccccc12` [drawing 524], the values for the Ki on hKOR (setting [7]), at humanDOR (setting [8]) and at hMOR (setting [9]) were 74 nM, 540 nM and 85 nM, respectively.
The corresponding values for `CN(CCc1ccccc1)C(=O)NC[C@H](Cc1ccc(O)cc1)N(C)C` [drawing 504] are 160 nM, 1200 nM and 320 nM.
`C[C@@H](Cc1ccsc1)NC(=O)NCC(Cc1ccc(O)cc1)N(C)Cc1ccccc1` (some centres unmarked): the Ki stood at 210 nM on hKOR (setting [7]), 720 nM at humanDOR (setting [8]) and 220 nM at hMOR (setting [9]).
As to `CN(C)[C@H](CNC(=S)NCCc1ccsc1)Cc1ccc(O)cc1` [DD81, (S)-1-(2-(dimethylamino)-3-(4-hydroxyphenyl)propyl)-3-(2-(thiophen-3-yl)ethyl)thiourea], the “Arrestin + GRK2 Emax % DAMGO” value at μOR [2] worked out at 27 % DAMGO. Also, the figures for the EC50 at μOR [2] (read-out: Arrestin + GRK2 EC50), at μOR [1] and at μOR [3] (read-out: Arrestin EC50) were 67.1 nM, 15.1 nM and 24.9 nM, respectively. In addition, the “Gi/o Emax % DAMGO” value at μOR [1] came out at 22 % DAMGO. Further, the “Arrestin Emax % DAMGO” value at μOR [3] was 3 % DAMGO.
In the case of `CN(C)[C@@H](CNC(=O)NC(C)(C)Cc1ccsc1)Cc1ccccc1`, the values for the Ki on hKOR (setting [7]), on humanDOR (setting [8]) and on hMOR (setting [9]) were 960 nM, 2400 nM and 180 nM, respectively.
Turning to `CN(CC1CC1)[C@H](CNC(=O)NCCc1ccccc1)Cc1ccc(O)cc1` [DD184], at μOR [2], the “Arrestin + GRK2 EC50 nM” value was “No Activity” and the “Arrestin + GRK2 Emax % DAMGO” value is “No Activity”. For the same compound, at μOR [1], the “Gi/o Emax % DAMGO” value was found to be 40 % DAMGO and the EC50 worked out at 559 nM. For the same compound, at μOR [3], the “Arrestin EC50 nM” value is listed as “No Activity” and the “Arrestin Emax % DAMGO” value was “No Activity”.
Regarding `C[C@@H](Cc1ccccc1)NC(=O)NC[C@H](Cc1ccc(O)cc1)N(C)C` [drawing 517], the inhibitory constant (Ki) at hKOR (setting [7]) was found to be 37 nM; on humanDOR (setting [8]) it was 360 nM; on hMOR (setting [9]), 42 nM.
The corresponding values for `Cc1cc(O)cc(C)c1C[C@@H](CNC(=O)NCCc1ccsc1)N(C)C` are 27 nM, 51 nM and 6.2 nM.
